# Experimental data reported in BindingDB's records for doi:10.7270/Q2697202 (Nmmlsc, 2008).
# Molecular target: Induced myeloid leukemia cell differentiation protein Mcl-1 (Homo sapiens, UniProt Q07820)
# Test: modulators of Bim peptide binding to Mcl-1, dose response, biochemical, bead-based flow cytometry, multiplexed, human (AID 1329)
# Details: not given
# Sequence of Induced myeloid leukemia cell differentiation protein Mcl-1 (Q07820 whole entry): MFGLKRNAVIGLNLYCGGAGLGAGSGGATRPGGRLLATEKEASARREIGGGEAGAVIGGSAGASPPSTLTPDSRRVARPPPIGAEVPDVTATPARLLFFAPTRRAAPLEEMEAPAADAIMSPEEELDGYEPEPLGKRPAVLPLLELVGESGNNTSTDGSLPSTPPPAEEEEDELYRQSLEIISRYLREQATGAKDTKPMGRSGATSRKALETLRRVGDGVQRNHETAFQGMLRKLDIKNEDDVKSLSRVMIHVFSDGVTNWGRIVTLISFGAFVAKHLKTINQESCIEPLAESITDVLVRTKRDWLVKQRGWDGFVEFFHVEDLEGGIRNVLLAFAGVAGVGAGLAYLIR
row,Structure (SMILES),EC50 [µM]
1,Cc1ccc(-c2nc(N3CCOCC3)s[n+]2-c2ccccc2)cc1 [SMR000225370],2.04
2,c1ccc(-c2nc(N3CCOCC3)[s+]n2-c2ccccc2)cc1,9.74
3,Cc1nc2ncccn2c1-c1csc(Nc2ccc(O)cc2)n1,0.39
4,"COc1cc(CN=Nc2nn3cnnc3c3ccccc23)ccc1O [(4E)-2-methoxy-4-[[2-([1,2,4]triazolo[3,4-a]phthalazin-6-yl)hydrazinyl]methylidene]cyclohexa-2,5-dien-1-one]",5.05
5,"COc1cc(C=NNC(=O)CN(Cc2ccco2)S(=O)(=O)c2ccccc2)ccc1O [N-(2-furanylmethyl)-N-[2-[[(E)-(3-methoxy-4-oxo-1-cyclohexa-2,5-dienylidene)methyl]hydrazo]-2-oxoethyl]benzenesulfonamide]",11.4
6,Nc1c(C(=O)NCC2CCCO2)sc2nc3c(c(-c4ccco4)c12)CC/C3=C\c1ccco1 (stereo unspecified) [SMR000259502],6
7,CCN1/C(=C/C(C)=C/c2sc3ccccc3[n+]2CC)Sc2ccccc21 [SMR000354813],41.2
8,CCC(/C=C1\Sc2ccc(OC)cc2N1CCO)=C\c1sc2ccc(OC)cc2[n+]1CCO,19.3
9,CN1CCc2cccc3c2[C@@H]1Cc1ccc(O)c(O)c1-3,38.6
10,"COc1cccc2c(SCC(=O)NN=Cc3ccc(O)cc3O)cc(C)nc12 [N'-[(E)-(2-hydroxy-4-oxo-1-cyclohexa-2,5-dienylidene)methyl]-2-[(8-methoxy-2-methyl-4-quinolinyl)thio]acetohydrazide]",29
11,Nc1c(C(=O)NC2CC2)sc2nc3c(c(-c4ccco4)c12)CC/C3=C/c1ccco1 [SMR000259554],5.86
12,Cc1nnc2ccc(-c3cccc(NC(=O)c4ccco4)c3)nn12 [SMR000324305],5.76

# Same assay, conditions: inactive by the depositor's call
row,Structure (SMILES),EC50 [µM]
1,Cc1ccc(-c2ccc(/C=C/C(=O)c3ccccc3)o2)cc1,13.2
2,"Cc1nc2ncccn2c1-c1csc(Nc2ccccc2)n1 [4-(2-methyl-3-imidazo[1,2-a]pyrimidinyl)-N-phenyl-2-thiazolamine]",8.97
3,COc1cc2nc(=S)[nH]c(NCCc3ccc(S(N)(=O)=O)cc3)c2cc1OC [MLS000674601],0.36
4,"COCCNC(=S)Nc1cc(OC)c(OC)cc1C#N [1-(2-cyano-4,5-dimethoxy-phenyl)-3-(2-methoxyethyl)thiourea]",7.11
5,"COc1cc2nc(=S)[nH]c(NCC3CCCO3)c2cc1OC (stereo unspecified) [6,7-dimethoxy-4-(2-oxolanylmethylamino)-1H-quinazoline-2-thione]",1.9
6,"c1ccc(Nc2cccc(Nc3ccccc3)n2)cc1 [N,N'-diphenyl-2,6-pyridinediamine]",12.2
7,"O=C(NCc1ccccc1)c1ccc2nc(-c3ccco3)c(-c3ccco3)nc2c1 [2,3-bis(furan-2-yl)-N-(phenylmethyl)quinoxaline-6-carboxamide]",7.82
8,C#CCn1cc(C=C2C(=O)c3ccccc3C2=O)c2ccccc21 [SMR000196125],16.3
9,Cc1cc(-c2nnc3n2N=C(c2ccc(-c4ccccc4)cc2)CS3)[nH]n1 [MLS000082991],9.39
10,O=C(/C=C\c1ccc(-c2ccccc2)o1)c1ccccc1 [(Z)-1-phenyl-3-(5-phenyl-2-furanyl)-2-propen-1-one],20.7
11,"COc1ccc(C2=Nn3c(nnc3-c3ccco3)SC2)cc1OC [6-(3,4-Dimethoxy-phenyl)-3-furan-2-yl-7H-[1,2,4]triazolo[3,4-b][1,3,4]thiadiazine]",2.94
12,O=C1c2ccccc2-c2onc3ccc(N4CCCC4)c1c23 [SMR000279741],69.7
13,"O=C1/C(=C\c2ccc(-c3ccccc3Cl)o2)SC(=S)N1CC1CCCO1 (stereo unspecified) [(5E)-5-[[5-(2-chlorophenyl)furan-2-yl]methylidene]-3-(oxolan-2-ylmethyl)-2-sulfanylidene-1,3-thiazolidin-4-one]",2.14
14,Cc1ccc(C=NNC(=O)CSc2nnc(-c3ccc(Cl)cc3)n2-c2ccccc2)o1 [SMR000218122],5.71
15,O=C(Nc1ccc2nc(-c3ccco3)c(-c3ccco3)nc2c1)N1CCN(c2ccccn2)CC1,10.9
16,CCOC(=O)c1nc(Nc2ccc(C(=O)OC)cc2)c2ccccc2n1 [ethyl 4-(4-methoxycarbonylanilino)quinazoline-2-carboxylate],14.7
17,"Cc1ccnc(Nc2nc(-c3c(C)nc4sccn34)cs2)c1 [[4-(6-Methyl-imidazo[2,1-b]thiazol-5-yl)-thiazol-2-yl]-(4-methyl-pyridin-2-yl)-amine]",16.7
18,Cc1ccc(C(=O)/C=C/c2ccc(-c3ccc(C)cc3)o2)cc1 [1-p-Tolyl-3-(5-p-tolyl-furan-2-yl)-propenone],2.61
19,O=S1(=O)N=C(N(CCO)N=C/C=C/c2ccccc2)c2ccccc21,20.9
20,COc1ccc(-n2c(=O)c3ccccc3c3ccccc3c2=O)c(OC)c1,26.9
21,CN(C)c1ncc(C2=C(Cl)C(=O)C(N3CCCC3)=C(Cl)C2=O)s1,3.71
22,Cc1cc2nn(-c3cccc4ccccc34)nc2cc1N [SMR000076237],1.75
23,COCCCNc1nc(S)nc2cc(OC)c(OC)cc12 [SMR000026607],1.74
24,COc1cc2nc(=S)n(CCCN3CCOCC3)c(N)c2cc1OC,6.14
25,Clc1nc(NCc2cccnc2)nc(N2CCOCC2)n1 [MLS000121154],16.9

row,Structure (SMILES),EC50 [µM]
1,"O=C(/C=C/c1ccccc1Cl)c1ccccc(=O)c1O [3-[(E)-3-(2-chlorophenyl)prop-2-enoyl]-2-oxidanyl-cyclohepta-2,4,6-trien-1-one]",19.4
2,"Cc1cc(C)nc(SCc2cc(=O)c(OC(=O)c3ccc(Cl)c([N+](=O)[O-])c3)co2)n1 [4-chloro-3-nitrobenzoic acid [6-[[(4,6-dimethyl-2-pyrimidinyl)thio]methyl]-4-oxo-3-pyranyl] ester]",5.92
3,CN(N=Cc1cccnc1)C1=NS(=O)(=O)c2ccccc21 [SMR000207578],20.6
4,CN1CCN(C2=C(Cl)C(=O)C(c3cnc(N4CCCCC4)s3)=C(Cl)C2=O)CC1,0.7
5,CCN1C(=O)/C(=C/C=C2\C=CN(CC)c3ccccc32)SC1=S,15.8
6,"O=C(CSc1ccc2nnc(-c3ccccn3)n2n1)Nc1nccs1 [2-[[3-(2-pyridinyl)-[1,2,4]triazolo[4,3-b]pyridazin-6-yl]thio]-N-(2-thiazolyl)acetamide]",11.8
7,CCOC(=O)c1ccc(Nc2nc(C(=O)OCC)nc3ccccc23)cc1,4.52
8,"O=C(Nc1ccccc1)c1ccc2nc(-c3ccco3)c(-c3ccco3)nc2c1 [2,3-di-2-furyl-N-phenyl-6-quinoxalinecarboxamide]",39.6
9,"CN(N=Cc1ccncc1)C1=NS(=O)(=O)c2ccccc21 [isonicotinaldehyde (1,1-dioxido-1,2-benzisothiazol-3-yl)(methyl)hydrazone]",2.74
10,Cc1cc2n(c1)CCn1c(C)ccc1-2 [MLS000104384],21
11,Cc1ccnc(SCc2cc(=O)c(OC(=O)c3ccc(Cl)c([N+](=O)[O-])c3)co2)n1 [MLS000696790],39.5
12,COc1ccc(/C=C/C(=O)c2cc(Br)ccc(=O)c2O)cc1 [MLS000702099],33.2
13,Cc1cccc(OCC(=O)NCC(=O)NN=Cc2cc(Br)ccc2OCc2ccccc2)c1 [N-[(5-bromanyl-2-phenylmethoxy-phenyl)methylideneamino]-2-[2-(3-methylphenoxy)ethanoylamino]ethanamide],7.78
14,COc1ccc(C)cc1-n1c(=O)c2ccccc2c2ccccc2c1=O [MLS000682999],16
15,Fc1ccc(C2=Nc3cccc4cccc(c34)N2)cc1 [MLS000687139],10.5
16,CCCCNc1[nH]c(=S)nc2cc(OC)c(OC)cc12 [MLS000520261],1.04
17,COc1ccc(OC)c(-n2c(=O)c3ccccc3c3ccccc3c2=O)c1 [SMR000236434],16.7
18,CCOCCCn1c(N)c(C(=O)Nc2sc3c(c2C(=O)OC)CCCC3)c2nc3ccccc3nc21,1.85
19,CCOC(=O)c1c(O)nc2ccc(Cl)c3c2c1-c1ccccc1C3=O [MLS000704595],9.29
20,"CN(N=C/C=C/c1ccccc1)C1=NS(=O)(=O)c2ccccc21 [(1E,2E)-3-phenylacrylaldehyde (1,1-dioxido-1,2-benzisothiazol-3-yl)(methyl)hydrazone]",5.53
21,O=C(c1ccccc1)c1ccc2nc(-c3ccco3)c(-c3ccco3)nc2c1,45.4
22,COCCNc1[nH]c(=S)nc2cc(OC)c(OC)cc12,4.54
23,CCOCCCNc1nc(S)nc2cc(OC)c(OC)cc12,2.54
24,COCCCn1c(N)c(C(=O)Nc2sc3c(c2C(=O)OC)CCCC3)c2nc3ccccc3nc21 [MLS000595323],3.12
